From patent publication US10047081B2, “BACE1 inhibitors” (Hoffmann-La Roche Inc., priority 2015, dated 2018)
pIC50: −log10 of the molar value. Where two headings read alike, the source gives them in different places.

What was measured:
[1] = target: T1, cathepsin D (from human liver) (Homo sapiens, UniProt P07339); experiment: Cathepsin D fluorescent substrate kinetic assay; assay type: biochemical; details: pH 5.5, substrate WTSVLMAAPC-MR121
T1 construct: cathepsin D (from human liver, Calbiochem) diluted in assay buffer; purchased Calbiochem; host or cells: human liver
T1 sequence (P07339 65-162 limits assumed): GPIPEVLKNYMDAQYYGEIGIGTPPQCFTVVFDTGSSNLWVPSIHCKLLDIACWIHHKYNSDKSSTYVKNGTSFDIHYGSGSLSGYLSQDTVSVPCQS
T1 sequence (P07339 169-412 limits assumed): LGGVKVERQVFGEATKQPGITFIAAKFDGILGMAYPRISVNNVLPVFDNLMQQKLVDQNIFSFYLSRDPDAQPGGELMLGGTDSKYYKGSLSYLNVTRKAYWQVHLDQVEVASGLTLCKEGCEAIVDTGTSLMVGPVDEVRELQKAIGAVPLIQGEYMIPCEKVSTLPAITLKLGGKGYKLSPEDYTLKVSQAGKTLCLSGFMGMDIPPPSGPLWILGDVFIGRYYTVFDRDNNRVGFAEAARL
Text: (§1) Cathepsin D and Cathepsin E Fluorescent Substrate Kinetic Assays
(§2) The MR121 fluorescence assays described below are based on the fact that MR121 forms a non-fluorescent ground state complex with tryptophan. In solution this formation occurs at millimolar concentrations of tryptophan. The mechanism can be used to design a generic biochemical assay for proteases. A substrate peptide is labeled at the N-terminus with tryptophan and at the C-terminus with the fluorophore MR121 (for cathepsin D the 10 amino acid peptide WTSVLMAAPC-MR121 was used; for cathepsin E, MR121-CKLVFFAEDW was used). In absence of protease activity, the substrates remain intact and the MR121 fluorescence is reduced by the high local Trp-concentration. If the substrates are cleaved by the enzymes the MR121 fluorescence is recovered.
(§3) The fluorescent substrate cathepsin D and cathepsin E kinetic assays were performed at room temperature in 384-well microtiter plates (black with clear flat bottom, non-binding surface plates from Corning) in a final volume of 51 μl. The test compounds were serially diluted in DMSO (15 concentrations, ⅓ dilution steps) and 1 μl of diluted compounds were mixed for 10 min with 40 μl of cathepsin D (from human liver, Calbiochem) diluted in assay buffer (100 mM sodium acetate, 0.05% BSA, pH 5.5; final concentration:200 nM) or with 40 μl of recombinant human cathepsin E (R&D Systems) diluted in assay buffer (100 mM sodium acetate, 0.05% BSA, pH 4.5; final concentration:0.01 nM). After addition of 10 μl of the cathepsin D substrate WTSVLMAAPC-MR121 diluted in cathepsin D assay buffer (final concentration:300 nM) or 10 μl of the cathepsin E substrate MR121-CKLVFFAEDW diluted in cathepsin E assay buffer (final concentration:300 nM), the plates were strongly shaken for 2 minutes. The enzymatic reaction was followed in a plate: vision reader (Perkin Elmer) (excitation wavelength:630 nm; emission:695 nm) for at least 30 minutes in a kinetic measurement detecting an increase of MR121 fluorescence during the reaction time. The slope in the linear range of the kinetic was calculated and the IC50 of the test compounds were determined using a four parameter equation for curve fitting.

BACE1 = target: T2, BACE1 (Homo sapiens, UniProt P56817); experiment: Cellular Aβ-lowering assay (Abeta 40 AlphaLISA, HEK293 APP cells); assay type: cell-based; details: 18-20 hrs incubation, Aβ 40 in culture supernatant, read-out: BACE1 cell act. Aβ40 IC50
T2 construct: endogenous in cells; host or cells: HEK293 APP cells
T2 sequence (P56817 46-501): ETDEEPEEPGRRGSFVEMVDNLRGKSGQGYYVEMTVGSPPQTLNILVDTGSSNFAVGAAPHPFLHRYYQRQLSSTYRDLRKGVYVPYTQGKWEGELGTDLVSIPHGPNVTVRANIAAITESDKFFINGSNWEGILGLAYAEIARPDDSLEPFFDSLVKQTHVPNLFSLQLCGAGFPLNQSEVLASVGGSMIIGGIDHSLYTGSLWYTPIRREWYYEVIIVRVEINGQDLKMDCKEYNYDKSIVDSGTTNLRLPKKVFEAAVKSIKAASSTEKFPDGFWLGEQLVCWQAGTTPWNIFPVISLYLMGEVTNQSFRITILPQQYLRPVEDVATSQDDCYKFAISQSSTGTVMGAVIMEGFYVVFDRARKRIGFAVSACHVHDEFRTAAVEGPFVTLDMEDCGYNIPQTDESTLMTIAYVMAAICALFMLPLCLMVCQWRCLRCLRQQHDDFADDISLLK
Protocol: Cellular Aβ-Lowering Assay:
The Abeta 40 AlphaLISA Assay can be used. The HEK293 APP cells were seeded in 96 well Microtiter plates in cell culture medium (Iscove's, plus 10% (v/v) fetal bovine serum, penicillin/streptomycin) to about 80% confluency and the compounds were added at a 3× concentration in ⅓ volume of culture medium (final DMSO concentration was kept at 1% v/v). After 18-20 hrs incubation at 37° C. and 5% CO2 in a humidified incubator, the culture supernatants were harvested for the determination of Aβ 40 concentrations using Perkin-Elmer Human Amyloid beta 1-40 (high specificity) Kit (Cat#AL275C).
In a Perkin-Elmer White Optiplate-384 (Cat#6007290), 2 ul culture supernatants were combined with 2 μl of a 10× AlphaLISA Anti-hAβAcceptor beads + Biotinylated Antibody Anti-Aβ 1-40 Mix (50 μg/mL/5 nM). After 1 hour room temperature incubation, 16 μl of a 1.25× preparation of Streptavidin (SA) Donor beads (25 μg/mL) were added and incubated for 30 minutes in the Dark. Light Emission at 615 nm was then recorded using EnVision-Alpha Reader. Levels of Aβ 40 in the culture supernatants were calculated as percentage of maximum signal (cells treated with 1% DMSO without inhibitor). The IC50 values were calculated using the Excel XLfit software.

CYP3A4 = target: T3, CYP3A4 (Homo sapiens, UniProt P08684); experiment: CYP inhibition assay, human liver microsomes; assay type: in vitro ADME
T3 construct: 0.2 mg/ml pooled human liver microsomes; from tissue; host or cells: pooled human liver microsomes
T3 sequence (P08684 whole entry): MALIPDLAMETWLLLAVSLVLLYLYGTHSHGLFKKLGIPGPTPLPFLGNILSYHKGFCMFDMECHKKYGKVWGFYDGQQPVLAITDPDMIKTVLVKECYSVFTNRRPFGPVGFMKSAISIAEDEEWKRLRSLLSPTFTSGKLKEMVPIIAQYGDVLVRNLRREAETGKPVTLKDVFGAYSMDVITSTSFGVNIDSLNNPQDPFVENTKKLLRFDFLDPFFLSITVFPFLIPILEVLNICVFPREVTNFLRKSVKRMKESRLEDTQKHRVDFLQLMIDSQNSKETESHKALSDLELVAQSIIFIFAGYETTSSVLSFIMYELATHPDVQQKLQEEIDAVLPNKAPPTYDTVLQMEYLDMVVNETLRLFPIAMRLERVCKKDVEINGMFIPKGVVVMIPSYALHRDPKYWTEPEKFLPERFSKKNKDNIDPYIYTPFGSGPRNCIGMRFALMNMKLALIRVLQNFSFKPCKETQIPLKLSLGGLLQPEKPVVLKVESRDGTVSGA
Protocol: (§4) Inhibition of cytochromes P450 (CYPs) 2C9, 2D6 and 3A4 was assessed using human liver microsomes and CYP-selective substrate metabolism reactions. 50 μl incubations were made up containing (finally) 0.2 mg/ml pooled human liver microsomes, 5 μM substrate (diclofenac for CYP2C9 [4′hydroxylase], dextromethorphan for CYP2D6 [O-demethylase] or midazolam for CYP3A4 [1′hydroxylase]), 0.25 μL DMSO containing test inhibitor and NADPH regenerating system. Test inhibitor concentrations of 50, 16.7, 5.6, 1.9, 0.6 and 0.2 μM were assessed in singlicate. Incubations were prewarmed to 37° C. for 10 minutes before initiation by addition of NADPH regenerating system. Incubations were quenched after 5 minutes (20 minutes for dextromethorphan) by addition of 50 μl cold acetonitrile containing 20 ng/ml 4-OH-diclofenac-13C6, 20 ng/mL dextrorphan-D3 and 20 ng/mL 1-OH-midazolam-D4. Quenched incubates were stored at −20° C. for at least 1 hour before centrifugation (20,000× g, 20 minutes). Supernatants were removed and diluted 1:1 with water prior to analysis using a RapidFire sample injector system and API4000 mass spectrometer. Peak areas for substrate, metabolite and stable-labelled metabolite standard were determined using MS/MS. The peak area ratios between the metabolite generated by the enzymatic reaction and the internal standard were used in subsequent calculations. The percentage of (DMSO) control activity was calculated for each incubate and IC50 values estimated by non-linear regression. Sulfaphenazole, quinidine or ketoconazole were tested in each CYP2C9, CYP2D6 or CYP3A4 inhibition experiment, respectively, to ensure assay sensitivity and reproducibility. (Validated assays for human cytochrome P450 activities, R. L. Walsky and R. S. Obach, Drug Metabolism and Disposition 32: 647-660, 2004. and S. Fowler and H. Zhang, The AAPS Journal, Vol. 10, No. 2, 410-424, 2008)

CYP2D6 = target: T4, CYP2D6 (Homo sapiens, UniProt P10635); experiment: CYP inhibition assay, human liver microsomes; assay type: in vitro ADME
T4 construct: 0.2 mg/ml pooled human liver microsomes; from tissue; host or cells: pooled human liver microsomes
T4 sequence (P10635 whole entry): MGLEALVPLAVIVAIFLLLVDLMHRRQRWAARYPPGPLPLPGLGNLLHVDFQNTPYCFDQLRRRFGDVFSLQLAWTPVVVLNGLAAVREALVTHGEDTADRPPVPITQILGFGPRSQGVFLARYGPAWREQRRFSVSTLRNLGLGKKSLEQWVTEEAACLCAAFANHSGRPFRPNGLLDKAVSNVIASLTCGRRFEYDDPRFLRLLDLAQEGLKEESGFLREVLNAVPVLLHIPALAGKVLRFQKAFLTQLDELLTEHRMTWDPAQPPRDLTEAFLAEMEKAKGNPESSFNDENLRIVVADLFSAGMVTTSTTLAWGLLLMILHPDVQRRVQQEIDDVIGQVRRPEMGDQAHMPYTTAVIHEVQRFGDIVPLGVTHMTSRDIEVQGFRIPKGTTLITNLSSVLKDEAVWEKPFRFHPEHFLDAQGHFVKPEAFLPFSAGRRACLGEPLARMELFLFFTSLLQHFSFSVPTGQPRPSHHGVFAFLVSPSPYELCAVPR
Protocol: as §4

CYP2C9 = target: T5, CYP2C9 (Homo sapiens, UniProt P11712); experiment: CYP inhibition assay, human liver microsomes; assay type: in vitro ADME
T5 construct: 0.2 mg/ml pooled human liver microsomes; from tissue; host or cells: pooled human liver microsomes
T5 sequence (P11712 whole entry): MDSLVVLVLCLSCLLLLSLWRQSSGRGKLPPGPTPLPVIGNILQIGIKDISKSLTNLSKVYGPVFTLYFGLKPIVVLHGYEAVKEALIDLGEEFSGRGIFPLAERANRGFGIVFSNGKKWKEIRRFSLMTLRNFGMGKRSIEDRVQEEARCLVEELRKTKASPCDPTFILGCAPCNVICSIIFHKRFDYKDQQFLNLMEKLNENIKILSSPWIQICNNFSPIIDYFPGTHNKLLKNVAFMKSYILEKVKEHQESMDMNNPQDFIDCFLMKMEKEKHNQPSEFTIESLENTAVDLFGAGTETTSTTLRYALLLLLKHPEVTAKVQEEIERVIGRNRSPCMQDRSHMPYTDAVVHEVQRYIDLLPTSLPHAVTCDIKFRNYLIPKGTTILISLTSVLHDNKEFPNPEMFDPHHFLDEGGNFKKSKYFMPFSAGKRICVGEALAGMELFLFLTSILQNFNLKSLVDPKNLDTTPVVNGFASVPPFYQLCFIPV
Protocol: as §4

[2] = target: T6, recombinant human cathepsin E (Homo sapiens, UniProt P14091); experiment: Cathepsin E fluorescent substrate kinetic assay; assay type: biochemical; details: pH 4.5, substrate MR121-CKLVFFAEDW
T6 construct: purchased R&D Systems
T6 sequence (P14091 54-396): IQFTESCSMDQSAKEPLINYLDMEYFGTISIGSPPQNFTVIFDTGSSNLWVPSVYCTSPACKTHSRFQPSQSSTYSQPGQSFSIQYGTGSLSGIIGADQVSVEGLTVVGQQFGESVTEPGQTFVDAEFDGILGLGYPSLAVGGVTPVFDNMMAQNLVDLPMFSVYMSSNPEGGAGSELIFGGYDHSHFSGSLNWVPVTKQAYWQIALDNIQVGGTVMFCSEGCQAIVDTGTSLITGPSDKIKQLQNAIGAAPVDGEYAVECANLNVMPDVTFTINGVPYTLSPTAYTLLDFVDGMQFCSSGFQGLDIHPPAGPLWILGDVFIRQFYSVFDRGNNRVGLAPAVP
Text: as §1, §2, §3

Row | Structure (SMILES) | pIC50 (BACE1) | other results
1 | CN=[S@@]1(=O)C[C@@](C)(c2cc(-c3cc(-c4ncc(Cl)cn4)no3)ccc2F)N=C(N)C12CCCC2 [Example 28, (6R,8R)-10-amino-8-(5-(3-(5-chloropyrimidin-2-yl)isoxazol-5-yl)-2-fluorophenyl)-8-methyl-6-(methylimino)-6-thia-9-azaspiro[4.5]dec-9-ene 6-oxide 2,2,2-trifluoroacetate] | 8.15 | pIC50 [1]: 4.80; pIC50 (CYP3A4): < 5.00; pIC50 (CYP2D6): < 5.00; pIC50 (CYP2C9): < 5.00; pIC50 [2]: 5.15
2 | CN=[S@]1(=O)C[C@@](C)(c2cc(-c3cc(-c4ncc(Cl)cn4)no3)ccc2F)N=C(N)C1(C)C [Example 12, (1S,3R)-5-amino-3-(5-(3-(5-chloropyrimidin-2-yl)isoxazol-5-yl)-2-fluorophenyl)-3,6,6-trimethyl-1-(methylimino)-3,6-dihydro-2H-1,4-thiazine 1-oxide 2,2,2-trifluoroacetate] | 7.72 | 
3 | CN=[S@@]1(=O)C[C@@](C)(c2cc(-c3cn(-c4ccc(C#N)cn4)nn3)ccc2F)N=C(N)C1(C)C [Example 10, 6-(4-(3-((1R,3R)-5-amino-3,6,6-trimethyl-1-(methylimino)-1-oxido-3,6-dihydro-2H-1,4-thiazin-3-yl)-4-fluorophenyl)-1H-1,2,3-triazol-1-yl)nicotinonitrile 2,2,2-trifluoroacetate] | 7.70 | 
4 | CN=[S@@]1(=O)C[C@@](CF)(c2cc(-c3cc(-c4cnc(OCC(F)F)cn4)no3)ccc2F)N=C(N)C1(C)C [Example 4, (1R,3S)-5-amino-3-(5-(3-(5-(2,2-difluoroethoxy)pyrazin-2-yl)isoxazol-5-yl)-2-fluorophenyl)-3-(fluoromethyl)-6,6-dimethyl-1-(methylimino)-3,6-dihydro-2H-1,4-thiazine 1-oxide 2,2,2-trifluoroacetate] | 6.95 | 
5 | CN=[S@@]1(=O)C[C@@](C)(c2cc(-c3cc(-c4ncc(C#N)cn4)no3)ccc2F)N=C(N)C1(C)C [Example 8, 2-(5-(3-((1R,3R)-5-amino-3,6,6-trimethyl-1-(methylimino)-1-oxido-3,6-dihydro-2H-1,4-thiazin-3-yl)-4-fluorophenyl)isoxazol-3-yl)pyrimidine-5-carbonitrile 2,2,2-trifluoroacetate] | 7.66 | 

Further lines, with some results ahead:

Row | pIC50 (BACE1) | Structure (SMILES) | other results
6 | 8.22 | COc1cnc(-c2cc(-c3ccc(F)c([C@]4(C)C[S@@](=O)(=NCC(F)(F)F)C(C)(C)C(N)=N4)c3)on2)cn1 [Example 37, (1S,3R)-5-amino-3-(2-fluoro-5-(3-(5-methoxypyrazin-2-yl)isoxazol-5-yl)phenyl)-3,6,6-trimethyl-1-((2,2,2-trifluoroethyl)imino)-3,6-dihydro-2H-1,4-thiazine 1-oxide 2,2,2-trifluoroacetate] | 
7 | 7.89 | CC1(C)C(N)=N[C@](C)(c2cc(-c3cc(-c4ncc(Cl)cn4)no3)ccc2F)C[S@]1(=O)=NC1CC1 [Example 34, (1R,3R)-3-[5-[3-(5-chloropyrimidin-2-yl)isoxazol-5-yl]-2-fluoro-phenyl]-1-cyclopropylimino-3,6,6-trimethyl-1-oxo-2H-1,4-thiazin-5-amine 2,2,2-trifluoroacetate] | 
8 | 8.05 | CN=[S@@]1(=O)C[C@@](C)(c2cc(-c3cc(-c4cnc(OCC(F)(F)F)cn4)no3)ccc2F)N=C(N)C1(C)C [Example 21, (1R,3R)-5-amino-3-(2-fluoro-5-(3-(5-(2,2,2-trifluoroethoxy)pyrazin-2-yl)isoxazol-5-yl)phenyl)-3,6,6-trimethyl-1-(methylimino)-3,6-dihydro-2H-1,4-thiazine 1-oxide 2,2,2-trifluoroacetate] | 
9 | 8.10 | COc1cnc(-c2cc(-c3ccc(F)c([C@]4(C)C[S@@](=N)(=O)C(C)(C)C(N)=N4)c3)on2)cn1 [Example 41, (1R,3R)-5-amino-3-(2-fluoro-5-(3-(5-methoxypyrazin-2-yl)isoxazol-5-yl)phenyl)-1-imino-3,6,6-trimethyl-3,6-dihydro-2H-1,4-thiazine 1-oxide] | pIC50 [1]: 4.35; pIC50 (CYP3A4; human liver microsomes, substrate midazolam, read-out: CYP IC50 3A4): < 5.00; pIC50 (CYP2D6; human liver microsomes, substrate dextromethorphan, read-out: CYP IC50 2D6): < 5.00; pIC50 (CYP2C9; human liver microsomes, substrate diclofenac, read-out: CYP IC50 2C9): < 5.00; pIC50 [2]: 4.25
10 | 7.43 | [2H]C([2H])([2H])N=[S@@]1(=O)C[C@@](C)(c2cc(-c3cc(-c4ncc(CC)cn4)no3)ccc2F)N=C(N)C1(C)C [Example 26, (1R,3R)-3-[5-[3-(5-ethylpyrimidin-2-yl)isoxazol-5-yl]-2-fluoro-phenyl]-3,6,6-trimethyl-1-oxo-1-(trideuteriomethylimino)-2H-1,4-thiazin-5-amine 2,2,2-trifluoroacetate] | 
11 | 8.15 | CC1(C)C(N)=N[C@](C)(c2cc(-c3cc(-c4ncc(Cl)cn4)no3)ccc2F)C[S@@]1(=O)=NC1CC1 [Example 36, (1S,3R)-5-amino-3-(5-(3-(5-chloropyrimidin-2-yl)isoxazol-5-yl)-2-fluorophenyl)-1-(cyclopropylimino)-3,6,6-trimethyl-3,6-dihydro-2H-1,4-thiazine 1-oxide 2,2,2-trifluoroacetate] | 
